Entries after “also recorded” stand apart in the source; their conditions may differ.
Tests used:
[1] = system: Bifidobacterium animalis subsp. lactis (B. lactis) ATCC 27536; experiment: Growth of bifidobacteria on mMRS medium with substrate as sole carbohydrate source; format: cell-based; details: 2% (wt/vol) in mMRS, 37° C., anaerobic, OD600
Procedure: (§1) B. infantis 15697 and B. animalis 27536 were tested for growth in the presence of glucose, HMOS, and LNFP I. Growth assays were performed as previously described.^[35] Briefly, two microliters of each resulting overnight culture was used to inoculate 150 μL of modified MRS medium (mMRS), devoid of glucose and supplemented with 2% (wt/vol) of each sterile-filtered substrate as the sole carbohydrate source. The medium was supplemented with 0.05% (wt/vol) 1-cysteine, and in all the cases the cultures in the wells of the microtiter plates were covered with 30 μL of sterile mineral oil to avoid evaporation. The incubations were carried out at 37° C. in an anaerobic chamber (Coy Laboratory Products). Cell growth was monitored in real time by assessing optical density at 600 nm (OD600) using a BioTek PowerWave 340 plate reader (BioTek, Winoosky, Vt.) every 30 min, preceded by 30 seconds of shaking at variable speed. Two biological replicates and three technical replicates each were performed for every strain. Fermentations were carried out in triplicate.

[2] = system: Bifidobacterium longum subsp. infantis (B. infantis) ATCC 15697; experiment: as above; format: cell-based; details: 2% (wt/vol) in mMRS, 37° C., anaerobic, OD600
Procedure: as §1

CC(=O)N[C@H]1[C@H](O[C@H]2[C@@H](O)[C@@H](CO)O[C@@H](O[C@H]3[C@H](O)[C@@H](O)C(O)O[C@@H]3CO)[C@@H]2O)O[C@H](CO)[C@@H](O)[C@@H]1O[C@@H]1O[C@H](CO)[C@H](O)[C@H](O)[C@H]1O[C@@H]1O[C@@H](C)[C@@H](O)[C@@H](O)[C@@H]1O (stereo partly drawn) [LNFP I, Fucα1-2Galβ1-3GlcNAcβ1-3Galβ1-4Glc]
growth with substrate as sole carbon source [1]: failed to grow
growth compared with growth on glucose [2]: remarkably faster
growth with substrate as sole carbon source [2]: grew well; also recorded: selectively consumed as a carbon source

— US11572548B2, “Reaction mixture for synthesis of alpha1-2-fucosides” (The Regents of the University of California, priority 2015, dated 2023)
